Consider 15 molecules from patent publication US8598145B2, “Mitochondrially delivered anti-cancer compounds” (priority 2008, dated 2013).

Some results are limits rather than exact numbers.

The test system of one experiment is LNCaP, PC-3. The conditions noted are these: Shiau et al, 2006; cited from earlier work.
The test system of the next experiment is MCF7. The note with it: Arya et al; cited from earlier work.
The next experiment concerns B16(F10). The note with it: cited from earlier work.
For experiment [1], the system named is neoplastIc + SA mammary epithelial cells. The note with it: cited from earlier work.
Experiment [2] concerns Ras-transformed B9 cells with a defective Complex II. The experiment can be described thus: Apoptosis in Ras-transformed B1 and B9 cells (FIG. 4C). In kind it is cell-based, Chinese hamster. On the procedure: 4C—After 24 h of treatment with Complex II targeting drugs TTFA or MitoVES, Ras transformed B1 and B9 cells were assessed for apoptosis using the Annexin V binding method.
The following cell lines used in this study were obtained from ATCC, unless specified otherwise: Human T lymphoma cells Jurkat, human mesothelioma cells Meso-I, MM-BI, Ist-Mes, Ist-Mes-2 (Pass, H. I. et al. Characteristics of nine newly derived mesothelioma cell lines. Ann. Thorac. Surg. 59, 835-844 (1995)), human breast cancer cells MCF-7 (erbB2-low) and MDA-MB-453 (erbB2-high), human colorectal cells HCT-116, human hepatocarcinoma cells Huh-7, mouse mesothelioma cells AE17 (Jackaman, C. et al. IL-2 intratumoral immunotherapy enhances CD8+ T cells that mediate destruction of tumor cells and tumor-associated vasculature: a novel mechanism for IL-2. J. Immunol. 171, […] (2003), human non-malignant mesothelial cells Met-5A, […] (Claycomb, W. C. et al. HL-1 cells: a cardiac muscle cell line that contracts and retains phenotypic characteristics of the adult cardiomyocyte. Proc. Natl. Acad. Sci. USA 95, 2979-2984 […]) and H9c2, and the human endothelial-like cells EAhy926 (Edgell, C. J., McDonald, C. C. & Graham, J. B. Permanent cell line expressing human factor VIII-related antigen established by hybridization. Proc. Natl. Acad. Sci. USA 80, 3734-3737 (1983)). Jurkat cells were grown in the RPMI medium while DMEM was used for other malignant cell lines and for Met-5A cells, supplemented with 10% FCS and antibiotics. HL-1 cells, maintained in fibronectin/gelatine-coated dishes, were grown in the Claycomb medium supplemented with noradrenalin (Claycomb, W. C. et al. HL-1 cells: a cardiac muscle cell line that contracts and retains phenotypic characteristics of the adult cardiomyocyte. Proc. Natl. Acad. Sci. USA 95, 2979-2984 […]), EAhy926 cells were grown in complete DMEM supplemented with HAT (Edgell, C. J., McDonald, C. C. & Graham, J. B. Permanent cell line expressing human factor VIII-related antigen established by hybridization. Proc. Natl. Acad. Sci. USA 80, 3734-3737 (1983)). Cells deficient in mtDNA (ρ^0 phenotype) were prepared as detailed in Weber, T. et al., (Mitochondria play a central role in apoptosis induced by α-tocopheryl succinate, an agent with anticancer activity. Comparison with receptor-mediated pro-apoptotic signaling. Biochemistry 42, 4277-4291 (2003)). Acquisition of the ρ^0 phenotype was confirmed by lack of expression by the cells of the mtDNA-encoded cytochrome c oxidase subunit II (COXII not shown). […]

The test system of another experiment is H9c2. Nature of the experiment: MTT viability assay (IC50). The conditions noted are these: H9c2, ~60% confluency. In kind it is cell-based, rat. From the text:
(§1) The following cell lines used in this study were obtained from ATCC, unless specified otherwise: Human T lymphoma cells Jurkat, human mesothelioma cells Meso-I, MM-BI, Ist-Mes, Ist-Mes-2 (Pass, H. I. et al. Characteristics of nine newly derived mesothelioma cell lines. Ann. Thorac. Surg. 59, 835-844 (1995)), human breast cancer cells MCF-7 (erbB2-low) and MDA-MB-453 (erbB2-high), human colorectal cells HCT-116, human hepatocarcinoma cells Huh-7, mouse mesothelioma cells AE17 (Jackaman, C. et al. IL-2 intratumoral immunotherapy enhances CD8+ T cells that mediate destruction of tumor cells and tumor-associated vasculature: a novel mechanism for IL-2. J. Immunol. 171, […] (2003), human non-malignant mesothelial cells Met-5A, […] (Claycomb, W. C. et al. HL-1 cells: a cardiac muscle cell line that contracts and retains phenotypic characteristics of the adult cardiomyocyte. Proc. Natl. Acad. Sci. USA 95, 2979-2984 […]) and H9c2, and the human endothelial-like cells EAhy926 (Edgell, C. J., McDonald, C. C. & Graham, J. B. Permanent cell line expressing human factor VIII-related antigen established by hybridization. Proc. Natl. Acad. Sci. USA 80, 3734-3737 (1983)). Jurkat cells were grown in the RPMI medium while DMEM was used for other malignant cell lines and for Met-5A cells, supplemented with 10% FCS and antibiotics. HL-1 cells, maintained in fibronectin/gelatine-coated dishes, were grown in the Claycomb medium supplemented with noradrenalin (Claycomb, W. C. et al. HL-1 cells: a cardiac muscle cell line that contracts and retains phenotypic characteristics of the adult cardiomyocyte. Proc. Natl. Acad. Sci. USA 95, 2979-2984 […]), EAhy926 cells were grown in complete DMEM supplemented with HAT (Edgell, C. J., McDonald, C. C. & Graham, J. B. Permanent cell line expressing human factor VIII-related antigen established by hybridization. Proc. Natl. Acad. Sci. USA 80, 3734-3737 (1983)). Cells deficient in mtDNA (ρ^0 phenotype) were prepared as detailed in Weber, T. et al., (Mitochondria play a central role in apoptosis induced by α-tocopheryl succinate, an agent with anticancer activity. Comparison with receptor-mediated pro-apoptotic signaling. Biochemistry 42, 4277-4291 (2003)). Acquisition of the ρ^0 phenotype was confirmed by lack of expression by the cells of the mtDNA-encoded cytochrome c oxidase subunit II (COXII not shown). Chinese hamster lung fibroblasts deficient in complex I (B10 cells) (See, B. B. et al. Molecular remedy of complex I defects: rotenone-insensitive internal NADH-quinone oxidoreductase of Saccharomyces cerevisiae mitochondria restores the NADH oxidase activity of complex I-deficient mammalian cells. Proc. Natl. Acad. Sci. USA 95, 9167-9171 (1998)) and complex II (CybL^−/−; B9 cells) (Oostveen, F. G., Au, H. C., Meijer, P. J. & Scheffler, I. E. A Chinese hamster mutant cell line with a defect in the integral membrane protein CII-3 of complex II of the mitochondrial electron transport chain. J. Biol. Chem. 270: 26104-26108 (1995)) as well as the parental cells (B1 cells) (Oostveen, F. G., Au, H. C., Meijer, P. J. & Scheffler, I. E. A Chinese hamster mutant cell line with a defect in the integral membrane protein CII-3 of complex II of the mitochondrial electron transport chain. J. Biol. Chem. 270: 26104-26108 (1995)) were grown in DMEM with 10% FCS, antibiotics, 10 mg/ml glucose and non-essential aminoacids.
(§2) Toxicity of α-TOS, VE11S (“VES”), MitoVE3S, MitoVE5S, MitoVE7S, MitoVE9S, MitoVE11S (“MitoVES”), MitoVE11AE (“MitoVEAE”), MitoVE11F (“MitoVEF”), MitoVE11M (“MitoVEM”), and VES4TPP towards cancer cells was assessed on the basis of IC50, as detailed in Turanek, J., et al. ((2008). Liposomal formulation of vitamin E analogs as an efficient and selective anti-cancer treatment. Clin. Cancer Res. (submitted)). […]

The test system of a further experiment is HL-1. The experiment can be described thus: MTT viability assay (IC50). The conditions noted are these: HL-1, ~60% confluency. In kind it is cell-based, rat.
Excerpt: as §1, §2

The test system of the next experiment is Meso-2. The experiment can be described thus: MTT viability assay (IC50). Format: cell-based, human. The note with it: Meso-2, ~60% confluency.
Excerpt: as §1, §2

A further experiment has as its system MCF-7. The experiment can be described thus: MTT viability assay (IC50). In kind it is cell-based, human. The conditions noted are these: MCF-7, ~60% confluency.
Excerpt: as §1, §2
(In general: Formazan colour is commonly taken as a measure of viable cells.)

For a further experiment, the system named is Jurkat. Nature of the experiment: MTT viability assay (IC50). Format: cell-based, human.
Excerpt: as §1, §2

Experiment [3] addresses T1, α-tocopherol transfer protein (α-TTP) (Rattus norvegicus, UniProt P41034).
T1 sequence (P41034 1-278): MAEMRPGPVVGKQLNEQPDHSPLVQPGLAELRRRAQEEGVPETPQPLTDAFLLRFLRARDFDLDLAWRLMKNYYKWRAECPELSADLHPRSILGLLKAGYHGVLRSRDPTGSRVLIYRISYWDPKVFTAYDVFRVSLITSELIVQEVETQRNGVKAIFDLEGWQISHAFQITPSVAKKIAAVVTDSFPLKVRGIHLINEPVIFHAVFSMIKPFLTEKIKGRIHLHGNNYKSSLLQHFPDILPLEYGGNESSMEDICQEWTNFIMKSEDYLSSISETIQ
The note with it: Hosomi et al 1997; cited from earlier work.

Where [4] appears, read: Table VI: Jurkat 0.5 × 10^6 per ml, analogs added as EtOH solution, MTT.

Turning to `Cc1c(C)c2c(c(C)c1OC(=O)CCC(=O)O)CCC(C)(CCCC(C)CCCC(C)C)O2` (centres unmarked) [Nr 43], the IC50 in the experiment on LNCaP, PC-3 was 4 to 9 µM.
Consider `Cc1c(C)c2c(c(C)c1OCCC(=O)O)CCC(C)(CCCC(C)CCCC(C)C)O2` (centres unmarked) [Nr 44], for which the IC50 in the experiment on LNCaP, PC-3 was 4 to 8 µM.
With `Cc1c(C)c2c(c(C)c1OC(=O)CCC(=O)O)CCC(C)(C)O2` [Nr 46], the IC50 with LNCaP, PC-3 was over 100 µM.
Take `Cc1c(C)c2c(c(C)c1OC(=O)C(N)CCCCN)CCC(C)(CO)O2` (centres unmarked) [Nr 47]: in the experiment with MCF7, the IC50 is 194 µM.
For the molecule `CCCCCOCC1(C)CCc2c(C)c(OC(=O)C(N)CCCCN)c(C)c(C)c2O1` (centres unmarked) [Nr 48], in the experiment with MCF7, the IC50 is 22 µM.
With `CCCCC(=O)OCC1(C)CCc2c(C)c(OC(=O)C(N)CCCCN)c(C)c(C)c2O1` (centres unmarked) [Nr 49], the IC50 with MCF7 is 15 µM.
For `CC(C)=CCCC(C)=CCCC(C)=CCCC1(C)CCc2cc(O)c(C)c(C)c2O1` (centres unmarked) [Nr 56], the IC50 in the experiment with B16(F10) is 20 µM; in experiment [1], 4 µM.
Regarding `CC(C)=CCCC(C)=CCCC(C)=CCCC1(C)CCc2cc(O)cc(C)c2O1` (centres unmarked) [Nr 59], the IC50 with B16(F10) is 10 µM.
In the case of `CC(C)=CCCC(C)=CCCC(C)=CCCC1(C)CCc2cc(O)ccc2O1` (centres unmarked) [Nr 60], the IC50 in the experiment with B16(F10) is 0.9 µM.
In the case of `O=C(CC(=O)C(F)(F)F)c1cccs1` [TTFA, reference compound], in [2] (24 h treatment, Annexin V binding), the “sensitivity to apoptosis of Ras-transformed B9 cells compared to Ras-transformed B1 cells” value is “much less sensitive”. Further, the “sensitivity after reconstitution of Complex II function (human SDHC) in Ras-transformed B9 cells” value in experiment [2] (B9 cells transfected to express human SDHC) is given as “restored the sensitivity”.
Turning to `Cc1c(C)c2c(c(C)c1OC(=O)CCC(=O)OCCCC[P+](c1ccccc1)(c1ccccc1)c1ccccc1)CCC(C)(CCCC(C)CCCC(C)CCCC(C)C)O2` (centres unmarked) [VES4TPP], the IC50 was over 100 µM in the experiment with H9c2; over 100 µM with HL-1; 28 ± 6 µM in the experiment on Meso-2; 19 ± 3 µM with MCF-7; 21 ± 5 µM with Jurkat (Jurkat, treated at 0.5 × 10^6 per ml, MTT viability curves); 21 ± 5 µM in the experiment with Jurkat (setting [4]).
`Cc1c(C)c2c(c(C)c1O)CC[C@@](C)(CCC[C@H](C)CCC[C@H](C)CCCC(C)C)O2` [α-TOH, α-tocopherol, reference compound]: the IC50 with Jurkat (setting [4]) was over 100 µM. Further, the “relative affinities for α-TTP” value in [3] is recorded as 100%.
For `Cc1cc(O)c(C)c2c1O[C@](C)(CCC[C@H](C)CCC[C@H](C)CCCC(C)C)CC2` [β-tocopherol], the “relative affinities for α-TTP” value in experiment [3] is 38%.
Take `Cc1c(O)cc2c(c1C)O[C@](C)(CCC[C@H](C)CCC[C@H](C)CCCC(C)C)CC2` [γ-tocopherol]: the “relative affinities for α-TTP” value in [3] is reported as 9%.
Take `Cc1cc(O)cc2c1O[C@](C)(CCC[C@H](C)CCC[C@H](C)CCCC(C)C)CC2` [δ-tocopherol]: in experiment [3], the “relative affinities for α-TTP” value was 2%.

As usually defined, the IC50 is the concentration that inhibits the measured activity by half.
